Measured values as given in patent US20260256792A1, “TREATMENT OF CHRONIC SPONTANEOUS URTICARIA BY ADMINISTERING (R)-2-[3-[4-AMINO-3-(2-FLUORO-4-PHENOXY-PHENYL)PYRAZOLO[3,4-D]PYRIMIDIN-1-YL]PIPERIDINE-1-CARBONYL]-4-METHYL-4-[4-(OXETAN-3-YL)PIPERAZIN-1-YL]PENT-2-ENENITRILE” (priority 2023, published 2026).

Test system: moderate-to-severe chronic spontaneous urticaria (CSU)
Assay: Phase 2 CSU study: itch severity score over 7 days (ISS7)
Format: in vivo, human
Conditions: Omalizumab-Naïve
From the text: The study comprises a 12 week, randomized, double-blind, placebo-controlled, multi-center, dose-ranging efficacy and safety phase, followed by a 40 week open label extension (OLE) phase (see FIG. 1). The study consists of three phases and an optional OLE phase. […] Clinically, CSU is characterized by the spontaneous and recurrent appearance of pruritic hives. The proposed primary endpoints were the UAS7 at Week 12 in EU and EU reference countries and the ISS7 in the US. Regardless of where a participant was from, all assessments were the same. The UAS7 score is a composite score containing both the HSS7 and the ISS7. This allowed a global assessment of the two key components of urticaria: hives and itch. […] The UAS is a validated PRO measure. […] The daily UAS scores range from 0 to 6 point/day. […] Patients were to complete the UAS using the e-diary. […] The following secondary endpoints were to be analyzed using the same approach as for the primary endpoint: • Change from baseline in UAS7 at Week 4 • Change from baseline in UAS7 at Week 12 (for US and US reference countries) • Change from baseline in ISS7 at Week 12 (except US and US reference countries) • Change from baseline in HSS7 at Week 12

With `CC(C)(C=C(C#N)C(=O)N1CCC[C@@H](n2nc(-c3ccc(Oc4ccccc4)cc3F)c3c(N)ncnc32)C1)N1CCN(C2COC2)CC1` [rilzabrutinib, (R)-2-[3-[4-amino-3-(2-fluoro-4-phenoxy-phenyl)pyrazolo[3,4-d]pyrimidin-1-yl]piperidine-1-carbonyl]-4-methyl-4-[4-(oxetan-3-yl)piperazin-1-yl]pent-2-enenitrile] the “ISS7 Post-baseline Mean (SD)” value (outlier removed, 400 mg TID, Week 1) was 9.79 (5.47), the “ISS7 Post-baseline Mean (SD)” value (outlier removed, 400 mg TID, Week 2) was 8.59 (5.80) and the “ISS7 Post-baseline Mean (SD)” value (outlier removed, 400 mg TID, Week 3) was 8.18 (5.41). For the same compound, the “ISS7 Post-baseline Mean (SD)” value (outlier removed, 400 mg TID, Week 4) was 7.79 (5.03), the “ISS7 Post-baseline Mean (SD)” value (outlier removed, 400 mg TID, Week 5) was 6.92 (5.87) and the “ISS7 Post-baseline Mean (SD)” value (outlier removed, 400 mg TID, Week 6) was 7.32 (6.05). For the same compound, the “ISS7 Post-baseline Mean (SD)” value (outlier removed, 400 mg TID, Week 7) was 7.14 (5.35), the “ISS7 Post-baseline Mean (SD)” value (outlier removed, 400 mg TID, Week 8) was 7.24 (5.51) and the “ISS7 Post-baseline Mean (SD)” value (outlier removed, 400 mg TID, Week 9) was 6.68 (5.31). For the same compound, the “ISS7 Post-baseline Mean (SD)” value (outlier removed, 400 mg TID, Week 10) was 6.75 (5.25), the “ISS7 Post-baseline Mean (SD)” value (outlier removed, 400 mg TID, Week 11) was 6.99 (5.53) and the “ISS7 Post-baseline Mean (SD)” value (outlier removed, 400 mg TID, Week 12) was 5.77 (5.26). For the same compound, the “ISS7 % Change difference for rilzabrutinib vs. placebo LS Mean (95% CI)” value (shortened to “ISS7 % Change difference … (95% CI)”) (400 mg BID, Week 1) was −23.80 (−38.99, −8.60) %, the “ISS7 % Change from baseline LS Mean (SE)” value (400 mg BID, Week 1) was −33.92 (5.73) % and the “ISS7 Change difference for rilzabrutinib vs. placebo LS Mean (95% CI)” value (shortened to “ISS7 Change difference … (95% CI)”) (400 mg BID, Week 1) was −3.14. For the same compound, the “ISS7 Change from baseline LS Mean (SE)” value (400 mg BID, Week 1) was −5.06 (0.83), the “ISS7 % Change difference … (95% CI)” value (400 mg BID, Week 2) was −17.28 (−32.06, −2.50) % and the “ISS7 % Change from baseline LS Mean (SE)” value (400 mg BID, Week 2) was −35.92 (5.58) %. For the same compound, the “ISS7 Change difference … (95% CI)” value (400 mg BID, Week 2) was −2.26, the “ISS7 Change from baseline LS Mean (SE)” value (400 mg BID, Week 2) was −5.49 (0.83) and the “ISS7 Post-baseline Mean (SD)” value (400 mg BID, Week 2) was 10.32 (5.64). For the same compound, the “ISS7 % Change difference … (95% CI)” value (400 mg BID, Week 3) was −20.30 (−35.19, −5.41) %, the “ISS7 % Change from baseline LS Mean (SE)” value (400 mg BID, Week 3) was −40.91 (5.60) % and the “ISS7 Change difference … (95% CI)” value (400 mg BID, Week 3) was −2.82. The “ISS7 Change from baseline LS Mean (SE)” value (400 mg BID, Week 3) was −6.52 (0.87), the “ISS7 Post-baseline Mean (SD)” value (400 mg BID, Week 3) was 9.16 (6.09) and the “ISS7 % Change difference … (95% CI)” value (400 mg BID, Week 4) was −20.53 (−36.37, −4.69) %. For the same compound, the “ISS7 % Change from baseline LS Mean (SE)” value (400 mg BID, Week 4) was −43.47 (5.96) %, the “ISS7 Change difference … (95% CI)” value (400 mg BID, Week 4) was −2.86 and the “ISS7 Change from baseline LS Mean (SE)” value (400 mg BID, Week 4) was −6.96 (0.93). For the same compound, the “ISS7 Post-baseline Mean (SD)” value (400 mg BID, Week 4) was 8.32 (6.02), the “ISS7 Post-baseline Mean (SD)” value (400 mg BID, Week 5) was 8.88 (6.81) and the “ISS7 Post-baseline Mean (SD)” value (400 mg BID, Week 6) was 8.85 (6.40). For the same compound, the “ISS7 Post-baseline Mean (SD)” value (400 mg BID, Week 7) was 8.21 (6.16), the “ISS7 Post-baseline Mean (SD)” value (400 mg BID, Week 8) was 7.33 (6.55) and the “ISS7 Post-baseline Mean (SD)” value (400 mg BID, Week 9) was 7.63 (7.11). The “ISS7 Post-baseline Mean (SD)” value (400 mg BID, Week 10) was 8.17 (7.29), the “ISS7 Post-baseline Mean (SD)” value (400 mg BID, Week 11) was 7.93 (6.94) and the “ISS7 % Change difference … (95% CI)” value (400 mg BID, Week 12) was −14.10 (−32.26, 4.06) %. The “ISS7 % Change from baseline LS Mean (SE)” value (400 mg BID, Week 12) was −48.31 (6.75) %, the “ISS7 Change difference … (95% CI)” value (400 mg BID, Week 12) was −1.96 and the “ISS7 Change from baseline LS Mean (SE)” value (400 mg BID, Week 12) was −7.73 (1.06). The “ISS7 Post-baseline Mean (SD)” value (400 mg BID, Week 12) was 8.09 (6.95), the “ISS7 % Change difference … (95% CI)” value (400 mg QPM, Week 1) was −8.25 (−23.30, 6.80) % and the “ISS7 % Change from baseline LS Mean (SE)” value (400 mg QPM, Week 1) was −18.38 (5.55) %. The “ISS7 Change difference … (95% CI)” value (400 mg QPM, Week 1) was −1.33, the “ISS7 Change from baseline LS Mean (SE)” value (400 mg QPM, Week 1) was −3.25 (0.80) and the “ISS7 Post-baseline Mean (SD)” value (400 mg QPM, Week 1) was 13.08 (4.52). For the same compound, the “ISS7 % Change difference … (95% CI)” value (400 mg QPM, Week 2) was −5.32 (−19.96, 9.32) %, the “ISS7 % Change from baseline LS Mean (SE)” value (400 mg QPM, Week 2) was −23.96 (5.37) % and the “ISS7 Change difference … (95% CI)” value (400 mg QPM, Week 2) was −0.76. For the same compound, the “ISS7 Change from baseline LS Mean (SE)” value (400 mg QPM, Week 2) was −3.99 (0.80), the “ISS7 % Change difference … (95% CI)” value (400 mg QPM, Week 3) was −8.38 (−23.14, 6.38) % and the “ISS7 % Change from baseline LS Mean (SE)” value (400 mg QPM, Week 3) was −28.99 (5.42) %. For the same compound, the “ISS7 Change difference … (95% CI)” value (400 mg QPM, Week 3) was −1.12, the “ISS7 Change from baseline LS Mean (SE)” value (400 mg QPM, Week 3) was −4.82 (0.85) and the “ISS7 Post-baseline Mean (SD)” value (400 mg QPM, Week 3) was 11.60 (4.68). For the same compound, the “ISS7 % Change difference … (95% CI)” value (400 mg QPM, Week 4) was −7.02 (−22.76, 8.71) %, the “ISS7 % Change from baseline LS Mean (SE)” value (400 mg QPM, Week 4) was −29.97 (5.75) % and the “ISS7 Change difference … (95% CI)” value (400 mg QPM, Week 4) was −0.93. The “ISS7 Change from baseline LS Mean (SE)” value (400 mg QPM, Week 4) was −5.03 (0.89), the “ISS7 Post-baseline Mean (SD)” value (400 mg QPM, Week 4) was 11.39 (4.79) and the “ISS7 Post-baseline Mean (SD)” value (400 mg QPM, Week 5) was 11.00 (4.68). The “ISS7 Post-baseline Mean (SD)” value (400 mg QPM, Week 6) was 10.27 (5.26), the “ISS7 Post-baseline Mean (SD)” value (400 mg QPM, Week 7) was 10.68 (5.34) and the “ISS7 Post-baseline Mean (SD)” value (400 mg QPM, Week 8) was 10.72 (5.26). For the same compound, the “ISS7 Post-baseline Mean (SD)” value (400 mg QPM, Week 10) was 10.43 (5.30), the “ISS7 Post-baseline Mean (SD)” value (400 mg QPM, Week 11) was 11.03 (5.55) and the “ISS7 % Change difference … (95% CI)” value (400 mg QPM, Week 12) was −0.54 (−18.55, 17.47) %. For the same compound, the “ISS7 % Change from baseline LS Mean (SE)” value (400 mg QPM, Week 12) was −34.75 (6.64) %, the “ISS7 Change difference … (95% CI)” value (400 mg QPM, Week 12) was 0.58 and the “ISS7 Change from baseline LS Mean (SE)” value (400 mg QPM, Week 12) was −5.19 (1.02). The “ISS7 % Change from baseline LS Mean (SE)” value (400 mg TID, Week 1) was −37.45 (5.78) %, the “ISS7 Change difference … (95% CI)” value (400 mg TID, Week 1) was −4.21 and the “ISS7 Change from baseline LS Mean (SE)” value (400 mg TID, Week 1) was −6.13 (0.82). The “ISS7 Post-baseline Mean (SD)” value (400 mg TID, Week 1) was 9.51 (5.64), the “ISS7 % Change difference … (95% CI)” value (400 mg TID, Week 2) was −27.63 (−42.70, −12.56) % and the “ISS7 % Change from baseline LS Mean (SE)” value (400 mg TID, Week 2) was −46.27 (5.61) %. The “ISS7 Change difference … (95% CI)” value (400 mg TID, Week 2) was −4.14, the “ISS7 Change from baseline LS Mean (SE)” value (400 mg TID, Week 2) was −7.37 (0.82) and the “ISS7 Post-baseline Mean (SD)” value (400 mg TID, Week 2) was 8.40 (5.82). The “ISS7 % Change difference … (95% CI)” value (400 mg TID, Week 3) was −27.20 (−42.33, −12.08) %, the “ISS7 % Change from baseline LS Mean (SE)” value (400 mg TID, Week 3) was −47.81 (5.64) % and the “ISS7 Change difference … (95% CI)” value (400 mg TID, Week 3) was −3.58. The “ISS7 Change from baseline LS Mean (SE)” value (400 mg TID, Week 3) was −7.29 (0.87), the “ISS7 Post-baseline Mean (SD)” value (400 mg TID, Week 3) was 8.34 (5.42) and the “ISS7 % Change difference … (95% CI)” value (400 mg TID, Week 4) was −24.55 (−40.74, −8.36) %. For the same compound, the “ISS7 % Change from baseline LS Mean (SE)” value (400 mg TID, Week 4) was −47.50 (6.02) %, the “ISS7 Change difference … (95% CI)” value (400 mg TID, Week 4) was −3.23 and the “ISS7 Change from baseline LS Mean (SE)” value (400 mg TID, Week 4) was −7.33 (0.92). The “ISS7 Post-baseline Mean (SD)” value (400 mg TID, Week 4) was 7.79 (5.03).
